Results: patent US11090317B2, “Aminophosphinic derivatives for preventing and treating eye inflammation” (priority 2017, dated 2021)
Entries after “also recorded” stand apart in the source; their conditions may differ.

Columns and labels:
[1] = test system: cornea; test: Corneal inflammation by in vivo confocal microscopy in inflammatory model induced by LPS (corneal scratch); design: species or system mice C57Bl/6; conditions: twice-daily instillation of 10 mM for 5 consecutive days; scratch + LPS 50 μg (1× or 2×); evaluated on the 5th day
Method: A corneal epithelial lesion (abrasion designated “scratch” in the figures) is made on the right eye of male mice C57Bl/6, 8 weeks old, using a trephine (diameter 1.5 mm) on the anaesthetised animal (isoflurane). A drop (10 μl) of LPS (50 μg) is […] deposited on the injured area and is left in contact with the cornea until the animal awakens. The experimentalist ensures the animal awakens correctly, which occurs within two minutes following the intervention.
The first topical treatment using a solution of PBS (phosphate buffer pH=7.4) (1×) or a solution of compound 1 (10 mM of compound 1 in a solution of PBS (1×)) was carried out 2 h after the instillation of LPS. This treatment was extended 2 times a day for 5 days. Four animal cages were studied:
The eye inflammation of the mice was evaluated on the 5th day using a confocal microscope in vivo. This enable images to be obtained (cellular and intercellular definition) of the cornea including the corneal epithelium, the nerve plexus, the stroma and the endothelium thanks to a capsule (Tomocap)/corneal module of the apparatus placed in contact with the cornea. The morphological changes of all the cells constituting the cornea and the corneal nerves are easily observable and quantifiable. All of the animals were anaesthetised by intraperitoneal injection (ketamine 100 mg/kg and xylazine 10 mg/kg). […]

[2] = test system: ATF3 (activating transcription factor 3); test: ATF3 immuno-histology in trigeminal ganglion, inflammatory keratitis model induced by LPS; type: in vivo, mice; conditions: LPS inflammation model; twice-daily instillation of 10 mM for 5 days
Text: (§1) ATF3 (activating transcription factor 3) is a transcription factor of the family of ATF which modulates the inflammatory response of several diseases. In physiological conditions, the primary sensory neurones express very little ATF3. An increase in the number of positive neurones for ATF-3 then underlines neuronal suffering linked to an inflammatory process. In the same way, Iba1 (ionized calcium-binding adapter molecule 1) is expressed in the microglial cells activated by the presence of macrophages and thus by an inflammatory process.
(§2) Two hours after the final instillation of LPS, a mixture of 300 μL of ketamine […] (100 mg/kg of body weight) and xylazine (10 mg/kg of body weight, Virbac, France) was injected by intraperitoneal route to deeply anaesthetise the animals. After fixation, the trigeminal ganglia and the eyes were carefully dissected and post-fixated for 48 h in the same fixation mixture. Sections (40 μm) of the complex of the trigeminal sub-nucleus ([…]) were formed using a Vibratom (Leica Microsystems, Germany). The TG were placed in a 10% solution of sucrose in 1×PBS (overnight), then in a 30% solution of sucrose before freezing at −20° C. in a mixture of 7.5% gelatine and 10% sucrose. Sections (14 μm) were made in the cryostat for the TG and the eyes and conserved at −20° C. […]

[3] = test system: Iba1 (ionized calcium binding adaptor molecule 1); test: Iba1 immuno-histology in trigeminal ganglion, inflammatory keratitis model induced by LPS; type: in vivo, mice; conditions: LPS inflammation model; twice-daily instillation of 10 mM for 5 days
Text: as §1, §2

[4] = test system: corneal epithelium; conditions: topical administration, versus non-treated corneas, cited from earlier work

Structure (SMILES): CC(OC(=O)N[C@@H](C)P(=O)([O-])C[C@@H](Cc1ccc(-c2ccccc2)cc1)C(=O)N[C@@H](C)C(=O)[O-])OC(=O)C(C)C.[Na+].[Na+] (some centres unmarked) [compound 1]
- eye inflammation of the corneas (confocal images) compared to PBS 1× [1]: less inflammatory
- expression of ATF3 in the trigeminal ganglion versus PBS control group [2]: considerably reduces the expression of ATF3; also recorded: reduce significantly
- Iba1 in the trigeminal ganglion (coloration of activated microglial cells expressing Iba-1) versus PBS control group [3]: considerably reduces the coloration of activated microglial cells expressing Iba-1; also recorded: reduce significantly

Structure (SMILES): CN1CC[C@]23c4c5ccc(O)c4O[C@H]2[C@@H](O)C=C[C@H]3[C@H]1C5 [morphine]
- development of an oedema of the stroma ([4]; 12 h after treatment): retard the development of an oedema of the stroma
- infiltration of immune cells [4]: very few immune cells present
